Test results as given in PubChem BioAssay (NCI).
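In this assay, cells in 96-well plates receive the compound at five concentrations for 48 hours. Endpoints are linearly interpolated between the surrounding concentrations. Definition used: TGI = concentration required for complete inhibition of growth.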

Legend:
Experiment in all cases: NCI anticancer screen, dose series, 48 h
[1] = tested on: MDA-N
[2] = tested on: TK-10 renal
[3] = tested on: RXF 393 renal
[4] = tested on: MCF7 breast
[5] = tested on: HT29 colon
[6] = tested on: K-562 leukemia
[7] = tested on: UO-31 renal
[8] = tested on: SK-MEL-5 melanoma
[9] = tested on: HOP-62 NSCLC
[10] = tested on: HCC-2998 colon
[11] = tested on: RPMI-8226 leukemia
[12] = tested on: SN12C renal
[13] = tested on: ACHN renal
[14] = tested on: BT-549 breast
[15] = tested on: LOX IMVI melanoma
[16] = tested on: KM12 colon
[17] = tested on: HCT-15 colon
[18] = tested on: MOLT-4 leukemia
[19] = tested on: SNB-75 CNS
[20] = tested on: OVCAR-8 ovarian
[21] = tested on: SF-539 CNS
[22] = tested on: OVCAR-4 ovarian
[23] = tested on: 786-0 renal
[24] = tested on: A498 renal
[25] = tested on: UACC-62 melanoma
[26] = tested on: U251 CNS
[27] = tested on: SF-295 CNS
[28] = tested on: PC-3 prostate
[29] = tested on: M14 melanoma
[30] = tested on: OVCAR-5 ovarian
[31] = tested on: SK-MEL-2 melanoma
[32] = tested on: MALME-3M melanoma
[33] = tested on: HOP-92 NSCLC
[34] = tested on: SK-OV-3 ovarian
[35] = tested on: HS 578T breast
[36] = tested on: NCI/ADR-RES ovarian
[37] = tested on: NCI-H23 lung
[38] = tested on: CCRF-CEM leukemia
[39] = tested on: EKVX NSCLC
[40] = tested on: OVCAR-3 ovarian
[41] = tested on: COLO 205 colon
[42] = tested on: A549 NSCLC
[43] = tested on: IGROV1 ovarian
[44] = tested on: T-47D breast
[45] = tested on: CAKI-1 renal
[46] = tested on: SR leukemia
[47] = tested on: SF-268 CNS
[48] = tested on: NCI-H226 lung
[49] = tested on: MDA-MB-435
[50] = tested on: SW-620 colon
[51] = tested on: HL-60(TB) leukemia
[52] = tested on: SNB-19 CNS
[53] = tested on: NCI-H522 lung
[54] = tested on: UACC-257 melanoma
[55] = tested on: HCT-116 colon
[56] = tested on: MDA-MB-231 breast
[57] = tested on: DU-145 prostate
[58] = tested on: NCI-H460 lung
[59] = tested on: SK-MEL-28 melanoma

Question: With C=C(C(=O)O[C@H]1C/C(C)=C/CC/C(CO)=C/[C@H]2C(=O)OC(=C)[C@H]12)C(O)CO (stereo partly drawn) as the compound, how does the TGI [1] read?
Answer: The TGI was 25.3 µM.

Question: What about the TGI [2] of the same compound?
Answer: Its TGI is 20.3 µM.

Question: What about the TGI [3] of the same compound?
Answer: The TGI was 25.9 µM.

Question: And the TGI [4]?
Answer: Its TGI is 25.6 µM.

Question: And the TGI [5]?
Answer: The TGI was 38.7 µM.

Question: And the TGI [6]?
Answer: The TGI was 14.8 µM.

Question: What about the TGI [7] of the same compound?
Answer: Its TGI is 27.6 µM.

Question: And the TGI [8]?
Answer: The TGI was 29.1 µM.

Question: And the TGI [9]?
Answer: The TGI was > 59.9 µM.

Question: And the TGI [10]?
Answer: Its TGI is 30.1 µM.

Question: And the TGI [11]?
Answer: The TGI was 4.95 µM.

Question: And the TGI [12]?
Answer: The TGI was 30.6 µM.

Question: What about the TGI [13] of the same compound?
Answer: Its TGI is 24.8 µM.

Question: What about the TGI [14] of the same compound?
Answer: Its TGI is 30.2 µM.

Question: What about the TGI [15] of the same compound?
Answer: The TGI was 36 µM.

Question: And the TGI [16]?
Answer: The TGI was 42.3 µM.

Question: What about the TGI [17] of the same compound?
Answer: The TGI was 24.4 µM.

Question: And the TGI [18]?
Answer: The TGI was 13.2 µM.

Question: What about the TGI [19] of the same compound?
Answer: Its TGI is 34.9 µM.

Question: And the TGI [20]?
Answer: The TGI was 40.1 µM.

Question: And the TGI [21]?
Answer: Its TGI is 10.4 µM.

Question: And the TGI [22]?
Answer: The TGI was 46.9 µM.

Question: What about the TGI [23] of the same compound?
Answer: Its TGI is 18.4 µM.

Question: What about the TGI [24] of the same compound?
Answer: Its TGI is 32.7 µM.

Question: What about the TGI [25] of the same compound?
Answer: Its TGI is 31.5 µM.

Question: What about the TGI [26] of the same compound?
Answer: The TGI was 27.1 µM.

Question: What about the TGI [27] of the same compound?
Answer: The TGI was > 60.8 µM.

Question: And the TGI [28]?
Answer: Its TGI is 22.2 µM.

Question: What about the TGI [29] of the same compound?
Answer: The TGI was 28.5 µM.

Question: And the TGI [30]?
Answer: The TGI was 33 µM.

Question: And the TGI [31]?
Answer: Its TGI is 29.6 µM.

Question: And the TGI [32]?
Answer: Its TGI is 10.7 µM.

Question: What about the TGI [33] of the same compound?
Answer: Its TGI is 31.4 µM.

Question: And the TGI [34]?
Answer: The TGI was 35.1 µM.

Question: What about the TGI [35] of the same compound?
Answer: Its TGI is 57.9 µM.

Question: And the TGI [36]?
Answer: Its TGI is 48.4 µM.

Question: And the TGI [37]?
Answer: Its TGI is 32.7 µM.

Question: And the TGI [38]?
Answer: Its TGI is 4.92 µM.

Question: And the TGI [39]?
Answer: The TGI was 36.5 µM.

Question: What about the TGI [40] of the same compound?
Answer: The TGI was 22.8 µM.

Question: And the TGI [41]?
Answer: The TGI was 13.4 µM.

Question: And the TGI [42]?
Answer: The TGI was 49.8 µM.

Question: What about the TGI [43] of the same compound?
Answer: The TGI was 39.5 µM.

Question: And the TGI [44]?
Answer: The TGI was 11.8 µM.

Question: And the TGI [45]?
Answer: Its TGI is 9.1 µM.

Question: And the TGI [46]?
Answer: Its TGI is 6.81 µM.

Question: What about the TGI [47] of the same compound?
Answer: The TGI was 39.6 µM.

Question: And the TGI [48]?
Answer: The TGI was 37.7 µM.

Question: And the TGI [49]?
Answer: The TGI was 26.3 µM.

Question: What about the TGI [50] of the same compound?
Answer: Its TGI is 14.4 µM.

Question: And the TGI [51]?
Answer: Its TGI is 10.4 µM.

Question: And the TGI [52]?
Answer: The TGI was 43.3 µM.

Question: And the TGI [53]?
Answer: The TGI was 3.3 µM.

Question: And the TGI [54]?
Answer: The TGI was 24.1 µM.

Question: And the TGI [55]?
Answer: Its TGI is 19.6 µM.

Question: What about the TGI [56] of the same compound?
Answer: Its TGI is 33.3 µM.

Question: And the TGI [57]?
Answer: The TGI was 33.4 µM.

Question: And the TGI [58]?
Answer: Its TGI is 31.6 µM.

Question: What about the TGI [59] of the same compound?
Answer: The TGI was 30.8 µM.

Question: For Cc1c(C(=O)c2ccc(N)c3ccccc23)c2ccccc2n1CCN1CCOCC1, which TGI [1] is on record?
Answer: Its TGI is 55 µM.

Question: What about the TGI [2] of the same compound?
Answer: The TGI was > 82.2 µM.

Question: What about the TGI [3] of the same compound?
Answer: Its TGI is 67.7 µM.

Question: What about the TGI [4] of the same compound?
Answer: The TGI was 70.9 µM.

Question: And the TGI [5]?
Answer: The TGI was 72.5 µM.

Question: And the TGI [6]?
Answer: The TGI was > 90.6 µM.

Question: And the TGI [7]?
Answer: The TGI was 86.6 µM.

Question: What about the TGI [8] of the same compound?
Answer: The TGI was 33.7 µM.

Question: And the TGI [9]?
Answer: The TGI was > 90.1 µM.

Question: What about the TGI [10] of the same compound?
Answer: Its TGI is 59.9 µM.

Question: What about the TGI [11] of the same compound?
Answer: The TGI was > 61.1 µM.

Question: And the TGI [12]?
Answer: The TGI was > 94.1 µM.

Question: And the TGI [13]?
Answer: The TGI was > 100 µM.

Question: And the TGI [14]?
Answer: Its TGI is 80.1 µM.

Question: And the TGI [15]?
Answer: Its TGI is 59 µM.

Question: And the TGI [16]?
Answer: The TGI was 49.1 µM.

Question: And the TGI [17]?
Answer: The TGI was > 95.7 µM.

Question: And the TGI [18]?
Answer: The TGI was > 67.7 µM.

Question: What about the TGI [19] of the same compound?
Answer: The TGI was 47.4 µM.

Question: And the TGI [20]?
Answer: The TGI was > 94.5 µM.

Question: What about the TGI [21] of the same compound?
Answer: Its TGI is 50.8 µM.

Question: And the TGI [22]?
Answer: Its TGI is > 47.8 µM.

Question: What about the TGI [23] of the same compound?
Answer: Its TGI is 80.6 µM.

Question: What about the TGI [24] of the same compound?
Answer: The TGI was 81.8 µM.

Question: And the TGI [25]?
Answer: Its TGI is 40.6 µM.

Question: What about the TGI [26] of the same compound?
Answer: Its TGI is > 95.6 µM.

Question: What about the TGI [27] of the same compound?
Answer: The TGI was 48.5 µM.

Question: And the TGI [28]?
Answer: The TGI was > 100 µM.

Question: And the TGI [29]?
Answer: The TGI was 63.7 µM.

Question: And the TGI [30]?
Answer: The TGI was 98.2 µM.

Question: What about the TGI [31] of the same compound?
Answer: Its TGI is 47.2 µM.

Question: What about the TGI [32] of the same compound?
Answer: Its TGI is 61.8 µM.

Question: And the TGI [33]?
Answer: The TGI was 75.6 µM.

Question: And the TGI [34]?
Answer: The TGI was > 100 µM.

Question: What about the TGI [35] of the same compound?
Answer: Its TGI is 48.4 µM.

Question: And the TGI [36]?
Answer: Its TGI is > 91.5 µM.

Question: And the TGI [37]?
Answer: Its TGI is > 100 µM.

Question: What about the TGI [38] of the same compound?
Answer: Its TGI is > 100 µM.

Question: What about the TGI [39] of the same compound?
Answer: Its TGI is > 92.2 µM.

Question: And the TGI [40]?
Answer: Its TGI is 41.3 µM.

Question: And the TGI [41]?
Answer: The TGI was 86.9 µM.

Question: What about the TGI [42] of the same compound?
Answer: The TGI was 99.1 µM.

Question: And the TGI [43]?
Answer: The TGI was > 89.6 µM.

Question: What about the TGI [44] of the same compound?
Answer: Its TGI is > 100 µM.

Question: And the TGI [45]?
Answer: The TGI was > 100 µM.

Question: What about the TGI [46] of the same compound?
Answer: The TGI was > 85.3 µM.

Question: And the TGI [47]?
Answer: Its TGI is > 88.5 µM.

Question: And the TGI [48]?
Answer: The TGI was > 100 µM.

Question: And the TGI [49]?
Answer: The TGI was 37 µM.

Question: And the TGI [50]?
Answer: Its TGI is > 100 µM.

Question: What about the TGI [51] of the same compound?
Answer: The TGI was 58.1 µM.

Question: What about the TGI [52] of the same compound?
Answer: The TGI was > 100 µM.

Question: And the TGI [53]?
Answer: Its TGI is 58.4 µM.

Question: And the TGI [54]?
Answer: Its TGI is 58.5 µM.

Question: What about the TGI [55] of the same compound?
Answer: The TGI was 48.6 µM.

Question: And the TGI [56]?
Answer: Its TGI is > 100 µM.

Question: What about the TGI [57] of the same compound?
Answer: Its TGI is > 95.2 µM.

Question: And the TGI [58]?
Answer: The TGI was > 77.1 µM.

Question: And the TGI [59]?
Answer: The TGI was > 100 µM.
